Laboratory results taken from PubChem BioAssay AID1919017 (Molecular Pharmacology Branch, DTP, NCI, 2023).

System: SW1271 complex spheroids with HUVEC/MSC, growth, % test/control
Assay: Anticancer human tumor SW1271 cell line growth inhibition [AhR];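 also: spheroids exposed to agents for 7 days before readout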
Details: for IC50: curve of first compound; for viability, T/C: stronger effect = lower value
Outline: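 Agents were dosed in half-log steps down from roughly clinical Cmax, or from 10 microM where Cmax was unknown, alone and with AhR antagonists. Read-out: percent test/control growth of tumor spheroids containing HUVEC and MSC stromal cells.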

[1] = second compound 0.1 µM, first compound 0.000949 µM
[2] = second compound 0.1 µM, first compound 0.003 µM
[3] = second compound 0.1 µM, first compound 0.00949 µM
[4] = second compound 0.1 µM, first compound 0.03 µM
[5] = second compound 0.1 µM, first compound 0.0949 µM
[6] = second compound 0.1 µM, first compound 0.3 µM
[7] = second compound 0.316 µM, first compound 0.000949 µM
[8] = second compound 0.316 µM, first compound 0.003 µM
[9] = second compound 0.316 µM, first compound 0.00949 µM
[10] = second compound 0.316 µM, first compound 0.03 µM
[11] = second compound 0.316 µM, first compound 0.0949 µM
[12] = second compound 0.316 µM, first compound 0.3 µM
[13] = second compound 1 µM, first compound 0.000949 µM
[14] = second compound 1 µM, first compound 0.003 µM
[15] = second compound 1 µM, first compound 0.00949 µM
[16] = second compound 1 µM, first compound 0.03 µM
[17] = second compound 1 µM, first compound 0.0949 µM
[18] = second compound 1 µM, first compound 0.3 µM
[19] = second compound 3.16 µM, first compound 0.000949 µM
[20] = second compound 3.16 µM, first compound 0.003 µM
[21] = second compound 3.16 µM, first compound 0.00949 µM
[22] = second compound 3.16 µM, first compound 0.03 µM
[23] = second compound 3.16 µM, first compound 0.0949 µM
[24] = second compound 3.16 µM, first compound 0.3 µM
[25] = second compound 10 µM, first compound 0.000949 µM
[26] = second compound 10 µM, first compound 0.003 µM
[27] = second compound 10 µM, first compound 0.00949 µM
[28] = second compound 10 µM, first compound 0.03 µM
[29] = second compound 10 µM, first compound 0.0949 µM
[30] = second compound 10 µM, first compound 0.3 µM

SMILES: CC(C)CC(NC(=O)C(Cc1ccccc1)NC(=O)c1cnccn1)B(O)O (stereo not given) + Cc1ccccc1N=Nc1ccc(NC(=O)c2ccnn2C)c(C)c1
- IC50 (second compound 0.1 µM): 5.48 nM
- IC50 (second compound 0.316 µM): 5.4 nM
- IC50 (second compound 1 µM): 5.73 nM
- IC50 (second compound 3.16 µM): 5.73 nM
- IC50 (second compound 10 µM): 6.76 nM
- viability, T/C [1]: 105%
- viability, T/C [2]: 97%
- viability, T/C [3]: 7.2%
- viability, T/C [4]: 1.26%
- viability, T/C [5]: 0.41%
- viability, T/C [6]: 0.31%
- viability, T/C [7]: 91.4%
- viability, T/C [8]: 90.3%
- viability, T/C [9]: 11.3%
- viability, T/C [10]: 0.73%
- viability, T/C [11]: 11.2%
- viability, T/C [12]: 6.11%
- viability, T/C [13]: 123%
- viability, T/C [14]: 101%
- viability, T/C [15]: 10.2%
- viability, T/C [16]: 1.95%
- viability, T/C [17]: 1.1%
- viability, T/C [18]: 0.56%
- viability, T/C [19]: 92.9%
- viability, T/C [20]: 89.4%
- viability, T/C [21]: 19.4%
- viability, T/C [22]: 1.27%
- viability, T/C [23]: 0.6%
- viability, T/C [24]: 0.68%
- viability, T/C [25]: 93.1%
- viability, T/C [26]: 99.5%
- viability, T/C [27]: 30.8%
- viability, T/C [28]: 2.17%
- viability, T/C [29]: 0.87%
- viability, T/C [30]: 0.59%

SMILES: CCc1c2c(nc3ccc(O)cc13)-c1cc3c(c(=O)n1C2)COC(=O)[C@]3(O)CC + Cc1ccccc1N=Nc1ccc(NC(=O)c2ccnn2C)c(C)c1
- IC50 (second compound 0.1 µM): 300 nM
- IC50 (second compound 0.316 µM): 67.1 nM
- IC50 (second compound 1 µM): 210 nM
- IC50 (second compound 3.16 µM): > 300 nM
- IC50 (second compound 10 µM): 78.8 nM
- viability, T/C [1]: 72.5%
- viability, T/C [2]: 99%
- viability, T/C [3]: 64%
- viability, T/C [4]: 56.2%
- viability, T/C [5]: 47.7%
- viability, T/C [6]: 54.7%
- viability, T/C [7]: 90.9%
- viability, T/C [8]: 85.4%
- viability, T/C [9]: 72.4%
- viability, T/C [10]: 54.2%
- viability, T/C [11]: 46.4%
- viability, T/C [12]: 48.7%
- viability, T/C [13]: 81.7%
- viability, T/C [14]: 74.3%
- viability, T/C [15]: 72.5%
- viability, T/C [16]: 55%
- viability, T/C [17]: 59.6%
- viability, T/C [18]: 46.5%
- viability, T/C [19]: 79.7%
- viability, T/C [20]: 85.6%
- viability, T/C [21]: 77.1%
- viability, T/C [22]: 63.6%
- viability, T/C [23]: 54.3%
- viability, T/C [24]: 52.7%
- viability, T/C [25]: 82%
- viability, T/C [26]: 82.7%
- viability, T/C [27]: 83.9%
- viability, T/C [28]: 59.6%
- viability, T/C [29]: 47.5%
- viability, T/C [30]: 48.9%

SMILES: Nc1ccccc1NC(=O)c1ccc(CNC(=O)OCc2cccnc2)cc1 + Cc1ccccc1N=Nc1ccc(NC(=O)c2ccnn2C)c(C)c1
- IC50 (second compound 0.1 µM): 1860 nM
- IC50 (second compound 0.316 µM): 2770 nM
- IC50 (second compound 1 µM): 2110 nM
- IC50 (second compound 3.16 µM): 1740 nM
- IC50 (second compound 10 µM): 1460 nM
- viability, T/C (second compound 0.1 µM, first compound 0.0316 µM): 76.7%
- viability, T/C (second compound 0.1 µM, first compound 0.1 µM): 135%
- viability, T/C (second compound 0.1 µM, first compound 0.316 µM): 91%
- viability, T/C (second compound 0.1 µM, first compound 1 µM): 62.1%
- viability, T/C (second compound 0.1 µM, first compound 3.16 µM): 41.5%
- viability, T/C (second compound 0.1 µM, first compound 10 µM): 13.6%
- viability, T/C (second compound 0.316 µM, first compound 0.0316 µM): 90.2%
- viability, T/C (second compound 0.316 µM, first compound 0.1 µM): 103%
- viability, T/C (second compound 0.316 µM, first compound 0.316 µM): 93.8%
- viability, T/C (second compound 0.316 µM, first compound 1 µM): 86%
- viability, T/C (second compound 0.316 µM, first compound 3.16 µM): 45.3%
- viability, T/C (second compound 0.316 µM, first compound 10 µM): 18%
- viability, T/C (second compound 1 µM, first compound 0.0316 µM): 101%
- viability, T/C (second compound 1 µM, first compound 0.1 µM): 100%
- viability, T/C (second compound 1 µM, first compound 0.316 µM): 90.7%
- viability, T/C (second compound 1 µM, first compound 1 µM): 63.1%
- viability, T/C (second compound 1 µM, first compound 3.16 µM): 43.7%
- viability, T/C (second compound 1 µM, first compound 10 µM): 19.9%
- viability, T/C (second compound 3.16 µM, first compound 0.0316 µM): 119%
- viability, T/C (second compound 3.16 µM, first compound 0.1 µM): 120%
- viability, T/C (second compound 3.16 µM, first compound 0.316 µM): 90.2%
- viability, T/C (second compound 3.16 µM, first compound 1 µM): 64.3%
- viability, T/C (second compound 3.16 µM, first compound 3.16 µM): 36.5%
- viability, T/C (second compound 3.16 µM, first compound 10 µM): 23.7%
- viability, T/C (second compound 10 µM, first compound 0.0316 µM): 89%
- viability, T/C (second compound 10 µM, first compound 0.1 µM): 94%
- viability, T/C (second compound 10 µM, first compound 0.316 µM): 86.6%
- viability, T/C (second compound 10 µM, first compound 1 µM): 52.6%
- viability, T/C (second compound 10 µM, first compound 3.16 µM): 41.2%
- viability, T/C (second compound 10 µM, first compound 10 µM): 22.8%
